The test system of one assay is Saccharomyces cerevisiae. The assay is described as follows: Synergy screening. Format: cell-based. The method, then:
To test for synergy, a 6×6-dose matrix was initially used to identify potentially synergistic dose combinations, and these points were then confirmed in triplicate. Cultures (200 μL) were grown with combinations of poacic acid (125 μg/mL), caspofungin (12.5 ng/mL), and fluconazole (3.8 μg/mL), and the ODs of relevant single-agent and solvent controls were measured after 24 h. Synergy was determined by comparing actual OD in the presence of compound combinations with an expected value calculated using the multiplicative hypothesis. This method assumes that, in the absence of an interaction, each compound would decrease the OD of the cell culture by the same fraction in the presence of the other compound as it does when applied alone (that is, E=A×B/C, where E is the expected OD, A is OD when compound A is applied alone, B is OD when compound B is applied alone, and C is OD of the control culture (DMSO). In the presence of synergy, the actual OD value is lower than the expected OD. A paired t test was used to confirm statistical significance of this difference in three replicates of the experiment.

Assay [1] concerns S. sclerotiorum strain 1980. The assay is described as follows: Growth inhibition of S. sclerotiorum in liquid and agar culture. Format: cell-based, Sclerotinia sclerotiorum. The note with it: 0, 125, 250, 500 μg/mL, 48 h, P<0.01. The method, then: To test inhibition in liquid culture, a dose curve of 0, 125, 250, and 500 μg/mL poacic acid in 100 mL potato dextrose broth (n=3) was used. Cultures of S. sclerotiorum strain 1980 were inoculated with 100 μL homogenized mycelia and grown at 25° C. for 48 h. The mycelia in the liquid media were dried and weighed. The growth inhibition of poacic acid on solid agar cultures (potato dextrose agar) was assessed by generating replicate plates (n=3) containing 0, 125, 250, and 500 μg/mL poacic acid. Plates were inoculated with an actively growing plug of S. sclerotiorum and grown at 25° C. The mycelial radial growth after 48 h was measured Inhibition of S. sclerotiorum in planta was tested by inoculating detached soybean leaves of the commercial variety Williams 82 with an agar plug of actively growing S. sclerotiorum mycelia. Leaves were treated one time before inoculation with either an aerosol spray of water with DMSO (control) or a 500 μg/mL solution of poacic acid. Leaves were incubated in a moist environment, and lesion development was monitored up to 120 h postinoculation. […] The growth inhibition of poacic acid was assessed at 0, 500, 1,000, and 1,500 μg/mL in replicate plates (n=3). […] Colony diameter was monitored for each treatment in a time-course experiment. […]

Assay [2] concerns poacic acid-resistant mutant (SUR1). Put plainly: Poacic acid-resistant mutant (PAr) with SNP in SUR1. Format: cell-based, Saccharomyces cerevisiae. As for the experimental part:
Agar containing 500 μg/mL poacic acid was inoculated with ˜1 million cells of yeast (control strain). After 1 wk, two colonies were found growing on the agar. Single-colony isolates were obtained and found to be resistant to poacic acid. For whole-genome sequencing, single-colony isolates of poacic acid-resistant mutant, the caspofungin-resistant mutant, and the control strain (WT) were grown in triplicate 200-μL cultures and pooled for genomic DNA extraction (Epicentre MasterPure Yeast Kit; MPY80200). The genomic DNA was prepared for Illumina whole-genome sequencing using the Illumina TruSeqKkit (FC-121-3001) and sequenced by 150-bp paired-end reads on the MiSeq platform.
To determine mutations in the drug-resistant mutants, read quality analysis was performed using FastQC (www.bioinformatics.babraharm.ac.uk/projects/fastqc/). Short reads were examined for quality and trimmed at the 3′ end when average base quality in a 3-nt window fell below Q30. Short reads were mapped to the standard S. cerevisiae reference genome, strain S288c (obtained from the National Center for Biotechnology Information RefSeq repository), using Burrows-Wheeler Alignment (BWA version 0.6.2) (Li et al. 2009) using the default parameters, with the exception of the fraction of missing alignments threshold, which was set at 0.08 (−n in bwa aln). […]

The subject of the next assay is β-1,3-glucan synthesis. Put plainly: In vivo β-1,3-glucan synthesis (14C-glucose incorporation). The format is cell-based, Saccharomyces cerevisiae. The following applies: 250 μg/mL, 2 h, 25° C. The method, then:
Inhibition of in vivo β-1,3-glucan synthesis was measured as described previously with slight modification (n=3) (Abe et al. 2003). Yeast cells (his3Δ) were grown in YPD to early log phase at 25° C. The cultured cells were diluted to 1×10^7 cells per 1 mL with 1 mL of YPD medium containing one-tenth the glucose containing 23.125 kBq [14C] glucose (ARC0122; American Radiolabeled Chemicals) and test compounds [250 μg/mL for poacic acid, 4 μg/mL for echinocandin B, 30 mM for hydroxyurea (negative control), or 0.4% (vol/vol) DMSO as a solvent control]. The cells were radiolabeled by culturing at 25° C. for 2 h. The labeled cells were harvested and incubated with 1 N NaOH at 80° C. for 30 min. The insoluble pellets were resuspended in 10 mM Tris·HCl, pH 7.5, containing 5 mg/mL zymolyase 100T (Seikagaku) and incubated at 37° C. for 18 h. […] The flow-through fraction was mixed with scintillation mixture (Ultima Gold; PerkinElmer), and radioactivity was measured by a scintillation counter (LSC-6100; Aloka). The differences in the incorporation rates in samples were normalized by ΔOD600 measured before and after the labeling period.

Take `COc1cc(/C=C/c2cc(/C=C/C(=O)O)cc(OC)c2O)ccc1O` [poacic acid, (E)-4-Hydroxy-3-{2-[(E)-4-hydroxy-3-methoxystyryl]}-5-methoxycinnamic acid]: in the assay on Saccharomyces cerevisiae, the “synergy with methyl methanesulfonate (MMS)” value is “not synergistic”. The synergy with caspofungin entry with Saccharomyces cerevisiae (poacic acid 125 μg/mL + caspofungin 12.5 ng/mL, 24 h, P<0.05) was “significant synergistic effects”. Moreover, the synergy with fluconazole entry in the assay on Saccharomyces cerevisiae (poacic acid 125 μg/mL + fluconazole 3.8 μg/mL, 24 h, P<0.01) was “significant synergy”. Further, the synergy with staurosporine result with Saccharomyces cerevisiae (poacic acid 125 μg/ml + staurosporine 100 ng/ml) is listed as “synergy”. In addition, in assay [1], the “colony radial growth on agar plates” value is “dose-dependent decrease” and the “fungal mass (mycelia weight) in liquid culture” value is “dose-dependent decrease”. Also, in assay [2] (PAr mutant with SNP in SUR1), the “resistance compared with the control strain” value was “increased resistance”. For the same compound, the “colony formation on agar” value in assay [2] (spontaneous chain-termination mutant in SUR1, agar with 500 μg poacic acid/mL) is listed as “able to form colonies”. In addition, the “14C-glucose incorporation into the β-1,3-glucan layer” value in the assay with β-1,3-glucan synthesis is “significantly less 14C-glucose incorporation”.

These data come from patent publication US11985974B2, “Antimicrobial ferulic acid derivatives and uses thereof” (WISCONSIN ALUMNI RESEARCH FOUNDATION, priority 2014, dated 2024).
